Test results reported in US7407948B2, “Photosensitisers and their uses” (priority 2007, dated 2008).
Where two headings read alike, the source gives them in different places.

Key:
[1] = Partition coefficient log P; type: physicochemical; settings: 2-octanol/0.1 M aqueous potassium phosphate at pH 7
From the text: Partition coefficient (2-octanol/0.1 M aqueous potassium phosphate at pH 7): log P=>2.

C. albicans = assay: Photoinactivation of yeast by phenoselenazinium derivatives (C. albicans); type: cell-based; settings: 10 μM photosensitiser, 30 min 37° C., 665 nm laser, 3 J/cm^2 (10 mW/cm^2)
Experimental: (§1) 1 mM stock solutions of the photosensitisers were made up by solubilising the photosensitiser in dimethyl sulfoxide.
(§2) Bacteria (E. coli, S. aureus) and yeast (C. albicans) cells were grown at 37° C. until the cells reached the logarithmic growth phase. Bacterial cells were grown in nutrient media, yeast cells were grown in Sabouraud media (obtainable via Millipore Limited, Watford, England).
(§3) Following the incubation, the log phase cells were washed twice in 0.1 M pH7.0 potassium phosphate buffer. The cells were then resuspended in buffer to give 3.5×10^8 CFU/ml for E. coli and S. aureus, or 1.0×10^7 CFU/ml for C. albicans.
(§4) The cells were incubated for 30 min at 37° C. with 10 μM photosensitiser. Following the incubation 2 mL of the cell suspension was removed into a 30 mm sterile Petri dish. The cell containing dish was then illuminated with a 665 nm Ceramoptec diode laser (trade mark of Ceramoptec GmBH, Germany and obtainable from Biolitec, Germany), at a light dose of 3 J/cm^2 (10 mW/cm^2).
(§5) Cells of the illuminated and non illuminated cultures were serially diluted and plated on either: nutrient agar (E. coli and S. aureus) or sabouraud agar (C. albicans). The plates were incubated for 24 h (E. coli and C. albicans) or 48 h (S. aureus). The colonies on the plates were counted as a measure of cell survival.

S. aureus = assay: Photoinactivation of bacteria by phenoselenazinium derivatives (S. aureus); type: cell-based; settings: 10 μM photosensitiser, 30 min 37° C., 665 nm laser, 3 J/cm^2 (10 mW/cm^2)
Experimental: as §1, §2, §3, §4, §5

E. coli = assay: Photoinactivation of bacteria by phenoselenazinium derivatives (E. coli); type: cell-based; settings: 10 μM photosensitiser, 30 min 37° C., 665 nm laser, 3 J/cm^2 (10 mW/cm^2)
Experimental: as §1, §2, §3, §4, §5

[2] = Singlet oxygen yield relative to Methylene Blue; type: physicochemical; settings: in methanol, relative to MB
[3] = tested on: subcutaneous CaNT tumours; assay: Anti-tumour efficacy in vivo (PDT, tumour necrosis); design: species or system CBA/gy mice; settings: 60 J/cm^2 660±15 nm, 72 h after illumination
Experimental: (§6) Tumour destruction was assessed in CBA/gy mice bearing subcutaneous CaNT tumours. The photosensitiser was administered intravenously at doses up to 16.7 μmol/kg. At various times after photosensitiser administration, the tumour was illuminated superficially with 60 J/cm^2, 50 mW/cm^2 light from a Paterson lamp using a 660±15 nm filter. Drug-light intervals ranged from 0 h (in practice, 1-2 minutes) up to 96 h. 72 h after illumination a cross sectional slice was removed from the centre of the tumour parallel to the incident light, an image of this was captured and the macroscopic necrotic area quantified using image analysis software. Necrosis was expressed as % area of the total tumour slice. % tumour necrosis in control tumours was generally <10%.
(§7) The phenoselenazinium compounds were dissolved and administered in a composition comprising 25% Solutol, 10% ethanol, 65% saline vehicle.

[4] = tested on: normal tissues surrounding the tumour (usually kidney); type: in vivo; settings: arbitrary score 0-3, i.v. dose 1.67 μmol/Kg
Experimental: as §6
An arbitrary score 0-3 of the severity of damage to normal tissues surrounding the tumour (usually kidney) was also recorded. 0=no detectable damage; 1=minimal damage to one organ; 2=damage to more than one organ; 3=death
as §7

[5] = i.v. dose 1.67 μmol/Kg, drug to light interval 0 h
[6] = i.v. dose 8.4 μmol/Kg, drug to light interval 1 h
[7] = i.v. dose 1.67 μmol/Kg, drug to light interval 1 h

Structure (SMILES)	logP [1]	Log change in CFU/mL (C. albicans)	Log change in CFU/mL (S. aureus)	Log change in CFU/mL (E. coli)	Singlet oxygen yield (relative to Methylene Blue) [2]	% tumour necrosis [3, 5]	% tumour necrosis ([3]; i.v. dose 8.4 μmol/Kg, drug to light interval 0 h)	% tumour necrosis [3, 6]	% tumour necrosis ([3]; i.v. dose 16.7 μmol/Kg, drug to light interval 0 h)	% tumour necrosis [3, 7]	% tumour necrosis ([3]; i.v. dose 0.84 μmol/Kg, drug to light interval 0 h)	% tumour necrosis ([3]; i.v. dose 0.84 μmol/Kg, drug to light interval 1 h)	% tumour necrosis ([3]; i.v. dose 4.18 μmol/Kg, drug to light interval 0 h)	% tumour necrosis ([3]; i.v. dose 6.26 μmol/Kg, drug to light interval 0 h)	% tumour necrosis ([3]; i.v. dose 8.34 μmol/Kg, drug to light interval 0 h)	Normal tissue damage ([4]; drug to light interval 0 h)	Normal tissue damage ([4]; drug to light interval 1 h)
CCCN(CCC)c1ccc2nc3ccc(N(CCC)CCC)cc3[se+]c2c1 [Compound 2, 3,7-Bis-(N,N-dipropylamino)phenoselenazin-5-ylium iodide]	> 2	0.35 (0.42) log CFU/mL	1.70 (0.48) log CFU/mL	3.16 (0.03) log CFU/mL	1.1	55%	87%	17%	100%								
CCCCN(CCCC)c1ccc2nc3ccc(N(CCC)CCC)cc3[se+]c2c1 [Compound 6, 3-N,N-dibutylamino-7-N,N-dipropylamino-phenoselenazin-5-ylium iodide]	> 2	6.12 (0.82) log CFU/mL	2.66 (2.26) log CFU/mL	6.54 (0.00) log CFU/mL	1.1	75%				15%							
CCCCN(CCCC)c1ccc2nc3ccc(N(CCCC)CCCC)cc3[se+]c2c1 [Compound 1, 3,7-Bis-(N,N-dibutylamino)phenoselenazin-5-ylium bromide]	> 2	0.00 (0.05) log CFU/mL	0.21 (0.01) log CFU/mL	5.48 (0.34) log CFU/mL	0.9	88%				88%	93%	40%					
CCCCCN(CCCCC)c1ccc2nc3ccc(N(CCCCC)CCCCC)cc3[se+]c2c1 [Compound 4, 3,7-Bis-(N,N-dipentylamino)phenoselenazin-5-ylium iodide]	> 2	0.17 (0.02) log CFU/mL	0.95 (0.73) log CFU/mL	3.66 (2.23) log CFU/mL	1.4	10%							45%	80%	80%		
CCN(CC)c1ccc2nc3ccc(N(CC)CC)cc3[se+]c2c1 [Compound 3, 3,7-Bis-(N,N-diethylamino)phenoselenazin-5-ylium iodide]	1.5	0.16 (0.22) log CFU/mL	2.72 (0.87) log CFU/mL	3.78 (0.28) log CFU/mL	1.5	0%				0%							
CN(C)c1ccc2nc3ccc(N(C)C)cc3[se+]c2c1.[I-] [Compound A, 3,7-N,N-dimethylamino-phenoselenazin-5-ylium iodide, reference compound]		0.19 (0.06) log CFU/mL	1.74 (0.41) log CFU/mL	3.33 (0.01) log CFU/mL		0%				0%						0	0
CCCCCCN(CCCCCC)c1ccc2nc3ccc(N(CCCCCC)CCCCCC)cc3[se+]c2c1 [Compound 5, 3,7-Bis-(N,N-dihexylamino)phenoselenazin-5-ylium iodide]	> 2	−0.03 (0.03) log CFU/mL	0.18 (0.12) log CFU/mL	0.02 (0.13) log CFU/mL	1.1	0%		30%									
